Patent US5191079A, “Quinolinecarboxylic acid derivatives” (priority 1990, dated 1993)
In brackets after ≈: the same amount, converted by molar mass. Where a name gives a salt, the structure may show the parent alone. Read-outs that look alike come from different tables or passages of the source.

Key:
Type in all cases: cell-based
[1] = tested on: Escherichia coli NIHJ JC-2; experiment: MIC, Experiment 1; conditions: NIHJJC2, E. coli NIHJ JC-2, Gram -, read-out: Min. inhib. concentr. (MIC)
Experimental: (§1) The compounds of the present invention (B, E, G, H, M, N, O, P and Q) were each dissolved in dimethylsulfoxide to prepare a solution of 5000 μg/ml in concentration. The compounds of the present invention (I, J and K) and the known compound (Y) were each dissolved in sterilized distilled water to prepare a solution of 5000 μg/ml in concentration. Each solution was diluted with sterilized distilled water to prepare a standard solution with a concentration of each test compound: 1000 μg/ml. The test was carried out by a method as appointed by Japan Society of Chemotherapy [cf. Chemotherapy, 29, 76-79 (1981), TOKYO].
(§2) As to Streptococcus pneumoniae and Streptococcus pyogenes, Brain heart infusion broth (manufactured by DIFCO) was used as the medium for the preculture thereof, and a heart infusion agar medium containing 5% defibrinated horse blood (manufactured by Nissui Seiyaku K. K., Japan) was used as the medium for the measurement of minimum inhibitory concentration (MIC). As to other microorganisms, a sensitivity test broth (manufactured by Nissui Seiyaku K. K.) was used as the medium for the preculture thereof, and a sensitivity test agar medium (manufactured by Nissui Seiyaku K. K.) was used as the medium for the measurement of MIC.

[2] = tested on: Klebsiella pneumoniae PCI-602; experiment: MIC, Experiment 1; conditions: PCI602, K. pneumoniae PCI-602, Gram -, read-out: Min. inhib. concentr. (MIC)
Experimental: as §1, §2

[3] = tested on: Staphylococcus aureus ATCC 9144; experiment: MIC, Experiment 1; conditions: ATCC9144, S. aureus ATCC 9144, Gram +, read-out: Min. inhib. concentr. (MIC)
Experimental: as §1, §2

[4] = tested on: Acinetobacter calcoaceticus Ac 54; experiment: MIC, Experiment 1; conditions: AC54, A. calcoaceticus Ac 54, Gram -, read-out: Min. inhib. concentr. (MIC)
Experimental: as §1, §2

Bacillus cereus IAM 1029 = experiment: MIC, Experiment 1; conditions: IAM1029, B. cereus IAM 1029, Gram +, read-out: Min. inhib. concentr. (MIC)
Experimental: as §1, §2

[5] = tested on: Staphylococcus aureus FDA 243; experiment: MIC, Experiment 1; conditions: FDA243, S. aureus FDA 243, Gram +, read-out: Min. inhib. concentr. (MIC)
Experimental: as §1, §2

[6] = tested on: Staphylococcus aureus IID 803; experiment: MIC, Experiment 1; conditions: IID803, S. aureus IID 803, Gram +, read-out: Min. inhib. concentr. (MIC)
Experimental: as §1, §2

[7] = tested on: Streptococcus pyogenes Cook; experiment: MIC, Experiment 1; conditions: S. pyogenes Cook, Gram +, agar with 5% defibrinated horse blood, read-out: Min. inhib. concentr. (MIC)
Experimental: as §1, §2

[8] = tested on: Staphylococcus aureus FDA 209P JC-1; experiment: MIC, Experiment 1; conditions: FDA209P, S. aureus FDA 209P JC-1, Gram +, read-out: Min. inhib. concentr. (MIC)
Experimental: as §1, §2

Enterobacter cloacae 963 = experiment: MIC, Experiment 1; conditions: E. cloacae 963, Gram -, read-out: Min. inhib. concentr. (MIC)
Experimental: as §1, §2

[9] = tested on: Streptococcus pyogenes Sv; experiment: MIC, Experiment 1; conditions: S. pyogenes Sv, Gram +, agar with 5% defibrinated horse blood, read-out: Min. inhib. concentr. (MIC)
Experimental: as §1, §2

[10] = tested on: Streptococcus pyogenes Su; experiment: MIC, Experiment 1; conditions: S. pyogenes Su, Gram +, agar with 5% defibrinated horse blood, read-out: Min. inhib. concentr. (MIC)
Experimental: as §1, §2

[11] = tested on: Streptococcus pneumoniae IID 552; experiment: MIC, Experiment 1; conditions: IID552, S. pneumoniae IID 552, Gram +, agar with 5% defibrinated horse blood, read-out: Min. inhib. concentr. (MIC)
Experimental: as §1, §2

[12] = tested on: Staphylococcus aureus Terajima (IID 670); experiment: MIC, Experiment 1; conditions: IID670, S. aureus Terajima (IID 670), Gram +, read-out: Min. inhib. concentr. (MIC)
Experimental: as §1, §2

[13] = tested on: clinically isolated Enterococcus faecalis; experiment: In vitro antibacterial activity against clinical isolates, Experiment 2; conditions: for MIC90: 90% of strains, read-out: MIC90
Experimental: (§3) The above solutions were then diluted with sterilized distilled water to prepare a standard solution with a concentration of the test compound: 1000 μg/ml each.
(§4) For the preculture of each microorganism, there was used as the medium a sensitivity test broth (manufactured by Nissui Seiyaku K. K., Japan), and for the measurement of MIC, there was used a sensitivity test agar medium (manufactured by Nissui Seiyaku K. K.).
(§5) The clinically isolates used above were isolated from Nov. 1988 to Jun. 1989 and were obtained from Research Section, Tokyo Clinical Research Center.

[14] = tested on: clinically isolated Staphylococcus aureus; experiment: as above; conditions: 25 clinical strains S. aureus incl. 16 methicillin resistant; for MIC50: 50% of strains, read-out: MIC50; for MIC90: 90% of strains, read-out: MIC90
Experimental: as §3, §4, §5

[15] = tested on: clinically isolated Staphylococcus epidermidis; experiment: as above; conditions: Staphylococcus epidermidis, 25 clinical strains S. epidermidis; for MIC50: 50% of strains, read-out: MIC50; for MIC90: 90% of strains, read-out: MIC90
Experimental: as §3, §4, §5

[16] = tested on: clinically isolated Enterococcus faecium; experiment: as above; conditions: for MIC90: 90% of strains, read-out: MIC90
Experimental: as §3, §4, §5

[17] = tested on: Staphylococcus epidermidis IAM 1296; experiment: MIC, Experiment 1; conditions: IAM1296, S. epidermidis IAM 1296, Gram +, read-out: Min. inhib. concentr. (MIC)
Experimental: The compounds of the present invention ([…] and Q) were each dissolved in dimethylsulfoxide to prepare a solution of 5000 μg/ml in concentration. The compounds of the present invention (I, J and K) and the known compound (Y) were each dissolved in sterilized distilled water to prepare a solution of 5000 μg/ml in concentration. […] The test was carried out by a method as appointed by Japan Society of Chemotherapy [cf. Chemotherapy, 29, 76-79 (1981), TOKYO]. As to Streptococcus pneumoniae and Streptococcus pyogenes, Brain heart infusion broth (manufactured by DIFCO) was used as the medium for the preculture thereof, and a heart infusion agar medium containing 5% defibrinated horse blood (manufactured by Nissui Seiyaku K. K., Japan) was used as the medium for the measurement of minimum inhibitory concentration (MIC). As to other microorganisms, a sensitivity test broth (manufactured by Nissui Seiyaku K. K.) was used as the medium for the preculture thereof, and a sensitivity test agar medium (manufactured by Nissui Seiyaku K. K.) was used as the medium for the measurement of MIC.

[18] = 25 clinical strains E. faecalis

| Structure (SMILES) | MIC [1] [µg/mL] | MIC [2] [µg/mL] | MIC [3] [µg/mL] | MIC [4] [µg/mL] | MIC (Bacillus cereus IAM 1029) [µg/mL] | MIC [5] [µg/mL] | MIC [6] [µg/mL] | MIC [7] [µg/mL] | MIC [8] [µg/mL] | MIC (Enterobacter cloacae 963) [µg/mL] | MIC [9] [µg/mL] | MIC [10] [µg/mL] | MIC [11] [µg/mL] | MIC [12] [µg/mL] | MIC [13, 18] [µg/mL] | MIC90 [13, 18] [µg/mL] | MIC [14] [µg/mL] | MIC50 [14] [µg/mL] | MIC90 [14] [µg/mL] | MIC [15] [µg/mL] | also measured |
| --- | --- | --- | --- | --- | --- | --- | --- | --- | --- | --- | --- | --- | --- | --- | --- | --- | --- | --- | --- | --- | --- |
| CN1Cc2csc3c(C(=O)O)c(=O)c4cc(F)c(N5CCC(N(C)C)CC5)c1c4n23 [Compound (H), 9,1-(methylimino)methano-7-fluoro-8-(4-dimethylaminopiperidino)-5-oxo-5H-thiazolo[3,2-a]quinoline-4-carboxylic acid] | 0.2 (≈ 0.465 µM) | 0.025 (≈ 0.0581 µM) | 0.05 (≈ 0.116 µM) | 0.1 (≈ 0.232 µM) | 0.05 (≈ 0.116 µM) | 0.05 (≈ 0.116 µM) | 0.1 (≈ 0.232 µM) | 0.05 (≈ 0.116 µM) | 0.1 (≈ 0.232 µM) | 0.39 (≈ 0.906 µM) | 0.05 (≈ 0.116 µM) | 0.05 (≈ 0.116 µM) | 0.05 (≈ 0.116 µM) | 0.05 (≈ 0.116 µM) | 0.2 to 6.25 (≈ 0.465 to 14.5 µM) | 3.13 (≈ 7.27 µM) | 0.05 to 3.13 (≈ 0.116 to 7.27 µM) | 0.1 (≈ 0.232 µM) | 3.13 (≈ 7.27 µM) | 0.05 to 3.13 (≈ 0.116 to 7.27 µM) | MIC50 [13]: 0.39 µg/mL (≈ 0.906 µM); MIC50 [15]: 0.05 µg/mL (≈ 0.116 µM); MIC90 [15]: 3.13 µg/mL (≈ 7.27 µM); MIC50 [16]: 1.56 µg/mL (≈ 3.62 µM); MIC ([16]; 25 clinical strains E. faecium): 0.2 to 25 µg/mL (≈ 0.465 to 58.1 µM); MIC90 ([16]; 25 clinical strains E. faecium): 12.5 µg/mL (≈ 29 µM); MIC [17]: 0.2 µg/mL (≈ 0.465 µM) |
| COCC1CN(c2c(F)cc3c(=O)c(C(=O)O)c4scc5n4c3c2N(C)C5)CCN1C (stereo not drawn) [Compound (J), 9,1-(Methylimino)methano-7-fluoro-8-(3-methoxymethyl-4-methyl-1-piperazinyl)-5-oxo-5H-thiazolo[3,2-a]quinoline-4-carboxylic acid hydrochloride] | 0.39 | 0.05 | 0.1 | 0.1 | 0.1 | 0.05 | 0.1 | 0.1 | 0.05 | 0.39 | 0.1 | 0.1 | 0.05 | 0.1 | 0.2 to 12.5 | 12.5 | 0.05 to 6.25 | 0.1 | 3.13 | 0.05 to 6.25 | MIC50 [13]: 0.39 µg/mL; MIC50 [15]: 0.1 µg/mL; MIC90 [15]: 3.13 µg/mL; MIC50 [16]: 3.13 µg/mL; MIC ([16]; 25 clinical strains E. faecium): 0.39 to 25 µg/mL; MIC90 ([16]; 25 clinical strains E. faecium): 12.5 µg/mL; MIC [17]: 0.2 µg/mL |
| CC1CN(c2c(F)cc3c(=O)c(C(=O)O)c4scc5n4c3c2N(C)C5)CCO1 (stereo not drawn) [Compound (A), 9,1-(Methylimino)methano-7-fluoro-8-(2-methylmorpholino)-5-oxo-5H-thiazolo[3,2-a]quinoline-4-carboxylic acid] | 0.1 (≈ 0.248 µM) | ≤ 0.006 | 0.013 (≈ 0.0322 µM) | ≤ 0.006 | 0.013 (≈ 0.0322 µM) | ≤ 0.006 | ≤ 0.006 | 0.025 (≈ 0.062 µM) | 0.013 (≈ 0.0322 µM) | 0.2 (≈ 0.496 µM) | 0.025 (≈ 0.062 µM) | 0.025 (≈ 0.062 µM) | 0.013 (≈ 0.0322 µM) | 0.013 (≈ 0.0322 µM) | 0.025 to 3.13 (≈ 0.062 to 7.76 µM) | 3.13 (≈ 7.76 µM) | 0.006 to 0.2 (≈ 0.0149 to 0.496 µM) | ≤ 0.006 | 0.2 (≈ 0.496 µM) | 0.006 to 0.39 (≈ 0.0149 to 0.967 µM) | MIC50 ([13]; 25 clinical strains E. faecalis, 50% of strains, read-out: MIC50): 0.1 µg/mL (≈ 0.248 µM); MIC50 [15]: 0.013 µg/mL (≈ 0.0322 µM); MIC90 [15]: 0.2 µg/mL (≈ 0.496 µM); MIC ([16]; 25 clinical strains E. faecium): 0.05 to 6.25 µg/mL (≈ 0.124 to 15.5 µM); MIC50 ([16]; 25 clinical strains E. faecium, 50% of strains, read-out: MIC50): 0.78 µg/mL (≈ 1.93 µM); MIC90 ([16]; 25 clinical strains E. faecium): 3.13 µg/mL (≈ 7.76 µM); MIC [17]: 0.05 µg/mL (≈ 0.124 µM) |
